Results on eight compounds are retold here after article PMC6438780 (Xenobiotica; the fate of foreign compounds in biological …, 2018).

Molecules are shown by their SMILES. Where two headings read alike, the source gives them in different places.

In data set [1] the test system is liver microsomes of humans. Conditions: ref data sheets provided by the manufacturer, cited from earlier work.
Data set [2] concerns human liver microsomes. As to the kind of experiment: Oxidation of flavanone and flavone by human liver microsomes. Conditions: P450s and human liver microsomes, whole assay system. (In general: Microsomes from liver hold many membrane-bound enzymes, among them those of drug oxidation.)
A further data set concerns the target T1, CYP2A6.1 (Homo sapiens, UniProt P11509).
T1 sequence (P11509 1-494): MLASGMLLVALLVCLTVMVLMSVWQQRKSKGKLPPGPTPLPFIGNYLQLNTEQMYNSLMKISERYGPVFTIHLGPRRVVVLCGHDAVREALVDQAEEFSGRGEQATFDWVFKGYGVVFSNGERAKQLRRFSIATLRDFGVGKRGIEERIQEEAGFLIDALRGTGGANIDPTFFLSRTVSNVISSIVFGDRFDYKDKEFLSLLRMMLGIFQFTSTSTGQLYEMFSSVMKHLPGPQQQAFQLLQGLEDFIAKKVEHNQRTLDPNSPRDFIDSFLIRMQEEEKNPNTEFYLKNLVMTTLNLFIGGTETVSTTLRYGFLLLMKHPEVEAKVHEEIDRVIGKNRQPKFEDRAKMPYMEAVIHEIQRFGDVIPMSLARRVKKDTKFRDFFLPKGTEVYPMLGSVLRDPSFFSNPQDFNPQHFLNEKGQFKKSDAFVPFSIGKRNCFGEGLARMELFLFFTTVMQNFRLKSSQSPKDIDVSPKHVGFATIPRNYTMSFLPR
Conditions: 20 min, 60 µM.

For data set [3], the system named is human liver microsomes. Description: Effects of CYP-specific inhibitors. Conditions: liver sample HH54 microsomes.
The subject of data set [4] is human liver microsomes.

Take `CC[C@@]1(c2ccccc2)NC(=O)N(C)C1=O` [S-Mephenytoin]: the “S-Mephenytoin 4’-hydroxylation” value in data set [1] (human sample HG95) is recorded as 0.015 nmol/min/mg; in data set [1] (human sample HH2), 0.020 nmol/min/mg; in data set [1] (human sample HH47), 0.0040 nmol/min/mg; in data set [1] (human sample HH54), 0.026 nmol/min/mg. For the same compound, the “S-Mephenytoin N-demethylation” value was 0.0070 nmol/min/mg in data set [1] (human sample HG95), 0.010 nmol/min/mg in data set [1] (human sample HH2), 0.0065 nmol/min/mg in data set [1] (human sample HH47) and 0.0010 nmol/min/mg in data set [1] (human sample HH54).

With `CC(=O)O[C@H]1C(=O)[C@@]2(C)[C@H]([C@H](OC(=O)c3ccccc3)[C@]3(O)C[C@H](OC(=O)[C@H](O)[C@@H](NC(=O)c4ccccc4)c4ccccc4)C(C)=C1C3(C)C)[C@]1(OC(C)=O)CO[C@@H]1C[C@@H]2O` [Paclitaxel], the “Paclitaxel 6a-hydroxylation” value is 0.093 nmol/min/mg in data set [1] (human sample HG95), 0.13 nmol/min/mg in data set [1] (human sample HH2), 0.13 nmol/min/mg in data set [1] (human sample HH47) and 0.21 nmol/min/mg in data set [1] (human sample HH54).

Consider `O=c1cc(-c2ccccc2)oc2ccccc12` [flavone], for which the “enzymatic formation of 7OHF from flavone” value with human liver microsomes [2] is listed as “did not detect”. In addition, on CYP2A6.1, the “rate of formation of 5OHF from flavone” value is ~ 0.01 nmol/min/nmol P450 and the “rate of formation of 6OHF from flavone” value came to 0.11 min⁻¹.

Turning to `O=c1ccc2ccccc2o1` [coumarin], the “Coumarin 7-hydroxylation” value is recorded as 0.18 nmol/mg/min in data set [1] (human sample HG95), “no detectable” in data set [1] (human sample HH2), 0.51 nmol/mg/min in data set [1] (human sample HH47) and 2.5 nmol/mg/min in data set [1] (human sample HH54). Besides, the “effect on formation of flavone (from flavanone)” value in the data set on human liver microsomes [3] (60 µM flavanone) is on record as “inhibited”. Moreover, the “effect on 2´OHFva formation (from flavanone)” value in the data set with human liver microsomes [3] (60 µM flavanone, low concentration of inhibitor) is on record as “markedly decreased”. Besides, in the data set on human liver microsomes [3] (60 µM flavone, low concentration of inhibitor), the “effect on formation of OHFM6, OHFM9, and diOHFM4 (from flavone)” value was “strongly inhibited”.

Regarding `O=c1cc(-c2ccccc2)oc2c1ccc1ccccc12` [ANF, α-naphthoflavone], the “effect on formation of 7OHFva, 3´OHFva, 4´OHFva OHFvaM5, and OHFvaM6 (from flavanone)” value in the data set with human liver microsomes [3] (60 µM flavanone) is recorded as “inhibited”. In addition, in the data set on human liver microsomes [3] (60 µM flavone), the “effect on formation of OHFM11, diOHFM3, and diOHFM5 (from flavone)” value was “inhibited”.

Take `CCOc1ccc(NC(C)=O)cc1` [Phenacetin]: the “Phenacetin O-deethylation” value is 0.26 nmol/mg/min in data set [1] (human sample HG95), 0.51 nmol/mg/min in data set [1] (human sample HH2), 0.36 nmol/mg/min in data set [1] (human sample HH47) and 0.44 nmol/mg/min in data set [1] (human sample HH54).

As to `O=C1CC(c2ccccc2)Oc2ccccc21` (stereo not drawn) [flavanone, Flavanone], the “rate of formation of flavone from flavanone” value in the data set on human liver microsomes [4] came to 0.15 nmol/min/nmol.

Take `C[C@]12CC[C@H]3[C@@H](CCC4=CC(=O)CC[C@@]43C)[C@@H]1CC[C@@H]2O` [Testosterone]: the “Testosterone 6β-hydroxylation” value in data set [1] (human sample HG95) was 0.64 nmol/mg/min; in data set [1] (human sample HH2), 0.78 nmol/mg/min; in data set [1] (human sample HH47) it was 4.1 nmol/mg/min; in data set [1] (human sample HH54), 4.9 nmol/mg/min.
